Assay results published in ChEMBL document CHEMBL4043199, “Synthesis and optimization of 4,5,6,7-tetrahydrooxazolo[4,5-c]pyridines as potent and orally-active metabotropic glutamate receptor 5 negative allosteric modulators” (Bioorg Med Chem Lett, 2017).
≈ marks a conversion by molar mass, not a printed value. Calls of active or inactive are those of the source. The calls are words filed in the database; no cut-off is given here.

Key:
[1] = Metabolic stability in human hepatic microsomes assessed as parent compound remaining at 1 uM after 30 mins in presence of NADPH by LC-MS/MS analysis relative to control; format: ADME, Microsome; settings: liver microsomes, read-out: Stability
[2] = target: Metabotropic glutamate receptor 5 (Homo sapiens, UniProt P41594); assay: Negative allosteric modulation of human recombinant mGluR5 expressed in HEK293 cells assessed as inhibition of glutamate-induced calcium mobilization preincubated for 2 mins followed glutamate addition measured by fluorescence assay; format: functional, cell-based
[3] = Metabolic stability in rat hepatic microsomes assessed as parent compound remaining at 1 uM after 30 mins in presence of NADPH by LC-MS/MS analysis relative to control; format: ADME, Microsome; settings: liver microsomes, read-out: Stability
Cytochrome P450 1A2 = target: T1, Cytochrome P450 1A2 (Homo sapiens, UniProt P05177); assay: Inhibition of CYP1A2 in human liver microsomes using phenacetin as substrate after 10 mins by LC-MS/MS analysis; format: ADME
T1 sequence (P05177 whole entry): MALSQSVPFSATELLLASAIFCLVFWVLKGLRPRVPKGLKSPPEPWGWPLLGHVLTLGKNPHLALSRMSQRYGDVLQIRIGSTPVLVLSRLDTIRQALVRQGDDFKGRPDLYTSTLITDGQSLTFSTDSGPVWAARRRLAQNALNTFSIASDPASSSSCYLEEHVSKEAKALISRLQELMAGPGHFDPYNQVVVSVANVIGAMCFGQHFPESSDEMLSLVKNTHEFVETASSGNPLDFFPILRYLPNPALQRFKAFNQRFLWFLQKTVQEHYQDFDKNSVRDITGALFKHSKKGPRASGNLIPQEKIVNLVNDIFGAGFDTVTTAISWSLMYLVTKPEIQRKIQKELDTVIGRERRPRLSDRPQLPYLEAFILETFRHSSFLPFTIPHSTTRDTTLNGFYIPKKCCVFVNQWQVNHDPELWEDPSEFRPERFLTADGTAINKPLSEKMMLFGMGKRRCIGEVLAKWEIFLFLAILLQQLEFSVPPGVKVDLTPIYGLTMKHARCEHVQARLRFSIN

[4] = Half life in monkey at 0.5 mg/kg, iv; format: ADME, organism-based, Macaca mulatta; settings: rhesus monkey, in vivo
[5] = Volume of distribution at steady state in rat at 1 mg/kg, iv after 24 hrs; format: ADME, organism-based; settings: in vivo, read-out: Vdss
[6] = Half life in rat at 1 mg/kg, iv; format: ADME, organism-based; settings: in vivo
[7] = Oral bioavailability in monkey at 10 mg/kg; format: ADME, organism-based, Macaca mulatta; settings: rhesus monkey, in vivo
[8] = […] of CYP450 in human liver microsomes as substrate after 10 mins by LC-MS/MS analysis; format: ADME
Cytochrome P450 2D6 = Cytochrome P450 2D6 (Homo sapiens, UniProt P10635); assay: Inhibition of CYP2D6 in human liver microsomes using bufuralol as substrate after 10 mins by LC-MS/MS analysis; format: ADME
[9] = AUC in rat at 10 mg/kg, po; format: ADME, organism-based; settings: in vivo
[10] = Clearance in rat at 1 mg/kg, iv after 24 hrs; format: ADME, organism-based; settings: in vivo
[11] = AUC in monkey at 10 mg/kg, po; format: ADME, organism-based, Macaca mulatta; settings: rhesus monkey, in vivo
Rattus norvegicus [12] = assay: Ex vivo receptor occupancy at mGluR5 in Sprague-Dawley rat brain at 1 mg/kg, po administered daily for 4 days in presence of [3H]-MPEPy by liquid scintillation counting method relative to control; format: functional
[13] = target: Voltage-gated inwardly rectifying potassium channel KCNH2 (Homo sapiens, UniProt Q12809); assay: Inhibition of human ERG
[14] = AUC in rat at 1 mg/kg, iv; format: ADME, organism-based; settings: in vivo
P-gp = assay: Substrate activity at P-gp (unknown origin) assessed as efflux ratio; format: ADME; settings: human, not told
[15] = Cmax in rat at 10 mg/kg, po; format: ADME, organism-based; set-up: dose 10 mg/kg, route oral; settings: in vivo
Cytochrome P450 2C8 = target: T2, Cytochrome P450 2C8 (Homo sapiens, UniProt P10632); assay: Inhibition of CYP2C8 in human liver microsomes using amodiaquine as substrate after 10 mins by LC-MS/MS analysis; format: ADME
T2 sequence (P10632 whole entry): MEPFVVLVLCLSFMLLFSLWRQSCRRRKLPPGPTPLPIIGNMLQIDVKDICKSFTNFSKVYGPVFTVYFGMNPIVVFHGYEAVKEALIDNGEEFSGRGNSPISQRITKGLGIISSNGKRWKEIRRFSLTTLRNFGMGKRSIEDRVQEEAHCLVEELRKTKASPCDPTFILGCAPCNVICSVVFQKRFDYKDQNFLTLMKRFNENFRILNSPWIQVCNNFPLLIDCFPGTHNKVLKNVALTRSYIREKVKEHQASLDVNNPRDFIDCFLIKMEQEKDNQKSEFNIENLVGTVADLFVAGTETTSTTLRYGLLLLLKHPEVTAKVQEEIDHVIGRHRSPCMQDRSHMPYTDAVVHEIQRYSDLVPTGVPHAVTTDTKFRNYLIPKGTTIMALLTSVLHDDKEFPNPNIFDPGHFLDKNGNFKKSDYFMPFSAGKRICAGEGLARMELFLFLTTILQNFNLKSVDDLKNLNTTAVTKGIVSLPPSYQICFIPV

Cytochrome P450 2A6 = target: T3, Cytochrome P450 2A6 (Homo sapiens, UniProt P11509); assay: Inhibition of CYP2A6 in human liver microsomes using coumarin as substrate after 10 mins by LC-MS/MS analysis; format: ADME
T3 sequence (P11509 whole entry): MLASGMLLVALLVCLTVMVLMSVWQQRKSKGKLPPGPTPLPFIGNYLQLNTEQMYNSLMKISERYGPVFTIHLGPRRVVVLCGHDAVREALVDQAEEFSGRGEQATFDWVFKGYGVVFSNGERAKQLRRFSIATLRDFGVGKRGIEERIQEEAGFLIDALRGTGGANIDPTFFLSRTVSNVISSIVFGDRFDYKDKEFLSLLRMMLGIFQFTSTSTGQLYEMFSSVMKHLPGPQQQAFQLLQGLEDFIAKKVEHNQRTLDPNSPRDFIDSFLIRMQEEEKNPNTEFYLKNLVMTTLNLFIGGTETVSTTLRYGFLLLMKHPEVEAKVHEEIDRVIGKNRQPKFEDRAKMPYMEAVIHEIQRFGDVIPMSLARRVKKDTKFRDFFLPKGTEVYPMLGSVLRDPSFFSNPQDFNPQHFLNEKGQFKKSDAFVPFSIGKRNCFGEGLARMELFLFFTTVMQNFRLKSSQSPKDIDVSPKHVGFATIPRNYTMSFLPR

[16] = Permeability of the compound at pH 7.4 by PAMPA; format: physicochemical; settings: read-out: permeability
[17] = Oral bioavailability in rat at 10 mg/kg; format: ADME, organism-based; settings: in vivo
[18] = Aqueous solubility of compound at pH 7.4; format: physicochemical; settings: aqueous medium
[19] = Volume of distribution at steady state in monkey at 0.5 mg/kg, iv after 24 hrs; format: ADME, organism-based, Macaca mulatta; settings: rhesus monkey, in vivo, read-out: Vdss
Cytochrome P450 2C9 = Cytochrome P450 2C9 (Homo sapiens, UniProt P11712); assay: Inhibition of CYP2C9 in human liver microsomes using diclofenac as substrate after 10 mins by LC-MS/MS analysis; format: ADME
Salmonella typhimurium = assay: Genotoxicity in Salmonella typhimurium by Ames test; format: toxicity; settings: salmonella enterica subsp. enterica serovar typhimurium
Cytochrome P450 3A4 = Cytochrome P450 3A4 (Homo sapiens, UniProt P08684); assay: Inhibition of CYP3A4 in human liver microsomes using midazolam as substrate after 10 mins by LC-MS/MS analysis; format: ADME
[20] = Clearance in monkey at 0.5 mg/kg, iv after 24 hrs; format: ADME, organism-based, Macaca mulatta; settings: rhesus monkey, in vivo
Rattus norvegicus [21] = assay: Ex vivo receptor occupancy at mGluR5 in Sprague-Dawley rat brain po administered daily for 4 days in presence of [3H]-MPEPy by liquid scintillation counting method; format: functional, organism-based
[22] = Cmax in monkey at 10 mg/kg, po; format: ADME, organism-based, Macaca mulatta; set-up: dose 10 mg/kg, route oral; settings: rhesus monkey, in vivo
Cytochrome P450 2C19 = Cytochrome P450 2C19 (Homo sapiens, UniProt P33261); assay: Inhibition of CYP2C19 in human liver microsomes using (S)-mephenytoin as substrate after 10 mins by LC-MS/MS analysis; format: ADME
[23] = AUC in monkey at 0.5 mg/kg, iv; format: ADME, organism-based, Macaca mulatta; settings: rhesus monkey, in vivo
[24] = AUC in rat at 0.35 mg/kg, iv; format: ADME, organism-based; settings: in vivo
[25] = Half life in rat at 0.35 mg/kg, iv; format: ADME, organism-based; settings: in vivo
Rattus norvegicus [26] = assay: Antidepressant activity in Wistar rat assessed as decrease in immobility time at 0.3 to 1 mg/kg, po administered 15 mins post training session from day 2 to day 6 measured for 5 mins by forced swimming test; format: functional, organism-based
[27] = Volume of distribution at steady state in rat at 0.35 mg/kg, iv after 24 hrs; format: ADME, organism-based; settings: in vivo, read-out: Vdss
Rattus norvegicus [28] = assay: Toxicity in rat at 100 mg/kg, po qd administered via gavage for 14 days; format: organism-based; settings: in vivo, 336 h
Rattus norvegicus [29] = assay: Ex vivo receptor occupancy at mGluR5 in Sprague-Dawley rat brain at 0.3 mg/kg, po administered daily for 4 days in presence of [3H]-MPEPy by liquid scintillation counting method relative to control; format: functional
[30] = Clearance in rat at 0.35 mg/kg, iv after 24 hrs; format: ADME, organism-based; settings: in vivo

Metabotropic glutamate receptor 5, sequence (P41594 whole entry): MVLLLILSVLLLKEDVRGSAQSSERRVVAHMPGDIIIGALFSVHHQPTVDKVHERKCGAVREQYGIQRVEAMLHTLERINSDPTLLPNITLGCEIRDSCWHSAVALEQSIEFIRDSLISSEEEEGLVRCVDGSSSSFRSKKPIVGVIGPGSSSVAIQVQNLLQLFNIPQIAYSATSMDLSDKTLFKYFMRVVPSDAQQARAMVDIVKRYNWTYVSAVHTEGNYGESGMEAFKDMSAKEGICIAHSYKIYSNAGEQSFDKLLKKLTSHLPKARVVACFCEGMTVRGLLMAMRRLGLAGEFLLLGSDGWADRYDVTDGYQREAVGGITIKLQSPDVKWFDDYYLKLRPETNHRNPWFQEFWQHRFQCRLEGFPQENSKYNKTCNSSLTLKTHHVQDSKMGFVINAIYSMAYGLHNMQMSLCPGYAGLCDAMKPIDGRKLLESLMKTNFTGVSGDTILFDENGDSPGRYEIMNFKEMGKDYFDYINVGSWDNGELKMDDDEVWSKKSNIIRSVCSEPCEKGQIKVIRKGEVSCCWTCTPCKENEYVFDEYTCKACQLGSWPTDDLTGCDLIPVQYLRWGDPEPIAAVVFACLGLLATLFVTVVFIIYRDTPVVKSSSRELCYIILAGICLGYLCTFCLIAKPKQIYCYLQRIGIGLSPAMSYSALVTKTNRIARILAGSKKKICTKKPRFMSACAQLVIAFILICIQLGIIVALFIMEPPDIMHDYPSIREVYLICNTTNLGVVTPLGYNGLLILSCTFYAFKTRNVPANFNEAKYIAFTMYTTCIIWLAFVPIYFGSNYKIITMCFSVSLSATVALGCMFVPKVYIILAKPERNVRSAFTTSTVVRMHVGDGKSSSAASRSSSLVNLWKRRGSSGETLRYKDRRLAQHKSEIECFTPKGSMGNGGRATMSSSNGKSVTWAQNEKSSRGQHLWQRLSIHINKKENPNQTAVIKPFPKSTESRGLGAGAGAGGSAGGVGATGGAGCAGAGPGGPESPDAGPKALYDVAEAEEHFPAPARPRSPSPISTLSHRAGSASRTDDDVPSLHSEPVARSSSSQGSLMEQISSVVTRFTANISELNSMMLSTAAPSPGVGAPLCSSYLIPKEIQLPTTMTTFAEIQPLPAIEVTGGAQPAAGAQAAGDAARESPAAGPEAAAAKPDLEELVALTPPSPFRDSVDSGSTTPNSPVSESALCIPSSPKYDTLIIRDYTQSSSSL
Voltage-gated inwardly rectifying potassium channel KCNH2, sequence (Q12809 whole entry): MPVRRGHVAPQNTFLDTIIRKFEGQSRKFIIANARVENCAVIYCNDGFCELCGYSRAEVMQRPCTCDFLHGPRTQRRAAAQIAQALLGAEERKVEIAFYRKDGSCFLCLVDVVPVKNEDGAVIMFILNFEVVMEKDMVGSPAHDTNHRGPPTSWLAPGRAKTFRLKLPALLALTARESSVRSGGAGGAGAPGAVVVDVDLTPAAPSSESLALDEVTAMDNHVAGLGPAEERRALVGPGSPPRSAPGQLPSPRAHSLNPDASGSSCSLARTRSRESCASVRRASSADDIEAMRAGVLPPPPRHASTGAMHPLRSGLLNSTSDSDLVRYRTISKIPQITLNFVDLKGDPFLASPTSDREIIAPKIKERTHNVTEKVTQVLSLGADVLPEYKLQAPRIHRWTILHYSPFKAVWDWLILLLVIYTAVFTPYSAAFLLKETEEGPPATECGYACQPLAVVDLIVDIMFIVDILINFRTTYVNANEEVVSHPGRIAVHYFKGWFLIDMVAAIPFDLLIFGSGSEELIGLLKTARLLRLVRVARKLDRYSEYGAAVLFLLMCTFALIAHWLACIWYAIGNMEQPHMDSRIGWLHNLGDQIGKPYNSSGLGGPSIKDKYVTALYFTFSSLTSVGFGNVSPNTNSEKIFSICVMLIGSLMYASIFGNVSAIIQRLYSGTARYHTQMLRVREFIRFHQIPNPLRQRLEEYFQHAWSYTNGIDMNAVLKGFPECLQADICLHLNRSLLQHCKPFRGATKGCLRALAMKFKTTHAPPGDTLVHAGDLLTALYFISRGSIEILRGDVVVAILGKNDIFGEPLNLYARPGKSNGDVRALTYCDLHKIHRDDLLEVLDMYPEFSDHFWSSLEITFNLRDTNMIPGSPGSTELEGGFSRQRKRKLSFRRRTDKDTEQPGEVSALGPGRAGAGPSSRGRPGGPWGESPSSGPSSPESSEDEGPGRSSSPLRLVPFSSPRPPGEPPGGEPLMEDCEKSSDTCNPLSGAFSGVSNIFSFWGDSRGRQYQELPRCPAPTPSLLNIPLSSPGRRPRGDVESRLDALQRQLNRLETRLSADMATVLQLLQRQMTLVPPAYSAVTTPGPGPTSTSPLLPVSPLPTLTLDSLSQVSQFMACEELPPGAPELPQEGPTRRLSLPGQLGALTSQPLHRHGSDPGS
Cytochrome P450 2C9, sequence (P11712 whole entry): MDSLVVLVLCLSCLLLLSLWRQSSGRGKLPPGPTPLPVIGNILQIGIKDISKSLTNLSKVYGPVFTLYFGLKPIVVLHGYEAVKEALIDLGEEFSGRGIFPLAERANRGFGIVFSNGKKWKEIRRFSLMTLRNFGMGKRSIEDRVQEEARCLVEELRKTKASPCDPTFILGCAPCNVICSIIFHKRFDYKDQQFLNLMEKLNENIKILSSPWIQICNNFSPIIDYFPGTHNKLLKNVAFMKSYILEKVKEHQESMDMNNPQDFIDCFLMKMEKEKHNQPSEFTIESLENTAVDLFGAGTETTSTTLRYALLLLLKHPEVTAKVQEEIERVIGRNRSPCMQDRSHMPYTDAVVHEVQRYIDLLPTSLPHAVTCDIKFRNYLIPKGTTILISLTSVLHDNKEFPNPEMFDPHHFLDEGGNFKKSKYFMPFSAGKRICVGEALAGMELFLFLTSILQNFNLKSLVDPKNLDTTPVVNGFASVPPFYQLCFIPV
Cytochrome P450 3A4, sequence (P08684 whole entry): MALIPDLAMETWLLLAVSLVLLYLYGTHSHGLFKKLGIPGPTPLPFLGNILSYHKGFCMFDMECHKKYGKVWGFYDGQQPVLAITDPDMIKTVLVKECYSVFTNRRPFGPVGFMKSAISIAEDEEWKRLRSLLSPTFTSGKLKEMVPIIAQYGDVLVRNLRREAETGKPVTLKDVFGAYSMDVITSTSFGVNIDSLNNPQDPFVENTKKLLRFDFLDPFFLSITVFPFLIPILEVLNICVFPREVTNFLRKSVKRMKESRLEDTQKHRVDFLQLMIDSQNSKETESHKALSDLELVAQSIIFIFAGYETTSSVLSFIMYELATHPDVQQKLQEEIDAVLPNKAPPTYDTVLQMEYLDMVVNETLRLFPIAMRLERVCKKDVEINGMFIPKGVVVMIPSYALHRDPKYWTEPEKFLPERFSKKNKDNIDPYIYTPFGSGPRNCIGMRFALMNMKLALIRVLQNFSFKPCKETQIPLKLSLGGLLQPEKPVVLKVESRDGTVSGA
Cytochrome P450 2C19, sequence (P33261 whole entry): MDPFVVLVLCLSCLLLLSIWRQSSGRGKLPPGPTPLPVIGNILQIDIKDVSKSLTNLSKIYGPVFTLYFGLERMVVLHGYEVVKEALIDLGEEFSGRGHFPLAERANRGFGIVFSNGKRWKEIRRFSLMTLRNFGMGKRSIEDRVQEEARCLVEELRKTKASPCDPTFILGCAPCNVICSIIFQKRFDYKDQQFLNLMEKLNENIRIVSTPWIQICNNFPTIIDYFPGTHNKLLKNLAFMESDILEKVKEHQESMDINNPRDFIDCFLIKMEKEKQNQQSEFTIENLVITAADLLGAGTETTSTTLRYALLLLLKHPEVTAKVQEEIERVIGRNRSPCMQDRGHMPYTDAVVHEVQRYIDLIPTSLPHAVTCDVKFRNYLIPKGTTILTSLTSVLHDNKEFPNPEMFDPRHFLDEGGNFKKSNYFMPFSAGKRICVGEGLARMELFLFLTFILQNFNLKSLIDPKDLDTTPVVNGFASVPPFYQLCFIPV
Cytochrome P450 2D6, sequence (P10635 whole entry): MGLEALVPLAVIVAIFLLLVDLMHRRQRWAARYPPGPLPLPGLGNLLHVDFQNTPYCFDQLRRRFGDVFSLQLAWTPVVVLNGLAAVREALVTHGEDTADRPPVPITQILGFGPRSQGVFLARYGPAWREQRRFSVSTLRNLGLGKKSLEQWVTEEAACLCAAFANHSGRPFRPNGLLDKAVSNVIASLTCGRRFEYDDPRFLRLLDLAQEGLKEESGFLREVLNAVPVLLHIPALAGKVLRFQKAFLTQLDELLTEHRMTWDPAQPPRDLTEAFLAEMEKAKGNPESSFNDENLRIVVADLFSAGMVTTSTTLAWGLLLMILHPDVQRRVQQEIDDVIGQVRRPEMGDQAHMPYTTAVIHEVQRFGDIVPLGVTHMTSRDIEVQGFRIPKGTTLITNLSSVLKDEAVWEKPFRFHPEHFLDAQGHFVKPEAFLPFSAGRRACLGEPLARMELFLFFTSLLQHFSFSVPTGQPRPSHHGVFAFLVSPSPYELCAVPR

Row | remaining at 0.5 h, 1 µM [1] [%] | IC50 [2] [µM] | remaining at 0.5 h, 1 µM [3] [%] | IC50 (Cytochrome P450 1A2) [µM] | half-life [4] [h] | bioavailability [7] [%] | Activity [8] | IC50 (Cytochrome P450 2D6) [µM] | AUC [9] [ng·h/mL] | AUC [11] [ng·h/mL] | efflux ratio (P-gp) | Cmax [15] [ng/mL] | IC50 (Cytochrome P450 2C8) [µM] | IC50 (Cytochrome P450 2A6) [µM] | Papp [16] [×10⁻⁶ cm/s] | bioavailability [17] [%] | solubility [18] [µg/mL] | Vd [19] [L/kg] | IC50 (Cytochrome P450 2C9) [µM] | Structure (SMILES) | IC50 [13] [µM] | other results
1 | > 91 | 0.09 | > 91 |  |  |  |  |  |  |  |  |  |  |  |  |  |  |  |  | O=C(c1ccc(F)cc1)N1CCc2oc(-c3ccc(F)cn3)nc2C1 |  | 
2 | 91 to 97 | 0.038 | 91 to 97 | > 50 | 16.1 | 61 | Not Active | > 50 | 34500 | 62400 | 0.9 | 1730 | > 50 | > 50 | 37.1 | 80 | 6 (≈ 16 µM) | 2.1 | > 50 | O=C(c1cc(F)cc(Cl)c1)N1CCc2oc(-c3ccc(F)cn3)nc2C1 | 19 | Vd [5]: 2.4 L/kg; half-life [6]: 8.9 h; clearance [10]: 3.8 mL/min/kg; Occ (Rattus norvegicus [12]): 48%; AUC [14]: 4340 ng·h/mL; Activity (Salmonella typhimurium): Non-Toxic; IC50 (Cytochrome P450 3A4): > 50 µM; clearance [20]: 1.7 mL/min/kg; Activity (Rattus norvegicus [21]): Dose-dependent effect; Cmax [22]: 2880 ng/mL; IC50 (Cytochrome P450 2C19): > 50 µM; AUC [23]: 5090 ng·h/mL
3 | 91 to 97 | 0.054 | 91 to 97 | > 50 | 4.8 | 139 | Not Active | > 50 | 37400 | 57100 | 1.1 | 2750 | > 50 | > 50 | 34.5 | 102 | 16 (≈ 49.5 µM) | 1.6 | > 50 | O=C(c1ccccc1)N1CCc2oc(-c3ccc(F)cn3)nc2C1 | 64 | AUC [24]: 1290 ng·h/mL; half-life [25]: 2.1 h; Activity (Rattus norvegicus [26]): Active; Vd [27]: 0.73 L/kg; Activity (Salmonella typhimurium): Non-Toxic; IC50 (Cytochrome P450 3A4): > 50 µM; Activity (Rattus norvegicus [28]): Non-Toxic; clearance [20]: 4.2 mL/min/kg; Occ (Rattus norvegicus [29]): 50%; Activity (Rattus norvegicus [21]): Dose-dependent effect; Cmax [22]: 3900 ng/mL; IC50 (Cytochrome P450 2C19): > 50 µM; AUC [23]: 2060 ng·h/mL; clearance [30]: 4.6 mL/min/kg
